The record followed here is patent publication US20070244111A1, “Pyrazolopyrimidines” (priority 2003, published 2007).

Like-named read-outs stand apart in the source and are kept apart here.

The data set can be described thus: log P determination by HPLC (EEC Directive 79/831 Annex V. A8). In kind it is physicochemical. The following applies: HPLC gradient method. The procedure: The log P values were determined in accordance with EEC Directive 79/831 Annex V. A8 by HPLC (gradient method, acetonitrile/0.1% aqueous phosphoric acid).
[1] abbreviates: gradient of acetonitrile/0.1% aqueous phosphoric acid, acetonitrile/0.1% aqueous phosphoric acid (pH 2.3), read-out: HPLC: log P.

Regarding `C=Cc1cnn2c(N3CCC(C)CC3)c(-c3ccc(F)cc3Cl)c(Cl)nc12` [Example 1, 3-vinyl-5-chloro-6-(2-chloro-4-fluorophenyl)-7-(4-methylpiperidino)pyrazolo[1 ,5a]pyrimidine], the chromatographic logP under setting [1] is 6.07.

Turning to `C#Cc1cnn2c(N3CCC(C)CC3)c(-c3ccc(F)cc3Cl)c(Cl)nc12` [Example 9], under setting [1], the chromatographic logP was 5.31.

With `CC(C)/C=C/c1cnn2c(N3CCC(C)CC3)c(-c3ccc(F)cc3Cl)c(Cl)nc12` [Example 10], under setting [1], the chromatographic logP is 7.21.

Consider `CC(Nc1c(-c2ccccc2Cl)c(Cl)nc2c(/C(Cl)=C/C=O)cnn12)C(C)(C)C` (centres unmarked) [Example 29], for which the chromatographic logP (acetonitrile/0.1% aqueous phosphoric acid (pH 2.3), read-out: HPLC: log P) was determined as 5.98.

On to `N#Cc1cnn2c(N3CCOCC3)c(-c3ccc(F)cc3Cl)c(Cl)nc12` [Example 141], for which, under setting [1], the chromatographic logP was 3.33.

As for `CC1CCN(c2c(-c3ccc(F)cc3Cl)c(Cl)nc3c(C=O)cnn23)CC1` [Example 142, 3-formyl-5-chloro-6-(2-chloro-4-fluorophenyl)-7-(4-methylpiperidino)pyrazolo[1,5-a]pyrimidine], the chromatographic logP (gradient of acetonitrile/0.1% aqueous phosphoric acid, pH 2.3, heading: HPLC: log P) was found to be 4.53.

Take `O=Cc1cnn2c(N3CCOCC3)c(-c3ccc(F)cc3Cl)c(Cl)nc12` [Example 143]: the chromatographic logP under setting [1] worked out at 2.94.

Take `N#Cc1cnn2c(Cl)c(-c3ccc(F)cc3Cl)c(Cl)nc12` [Example 145, 3-cyano-5,7-dichloro-6-(2-chloro-4-fluorophenyl)pyrazolo[1 ,5-a]pyrimidine]: under setting [1], the chromatographic logP amounted to 3.48.
